One assay relates to activated T-lymphocytes. In words: Cellular assay, primary T-lymphocytes activated with CD3/CD28 Dynabeads. In kind it is cell-based, human. As for the experimental part: (§1) Cellular Assay and IC50 Value Determination
Primary T-lymphocytes are isolated from donated human blood and thereafter activated with CD3/CD28 Dynabeads. The T-lymphocytes are treated with an MTH1 inhibitor, positive control or vehicle for 24-96 hrs. Cell viability can be measured by using standard assays, such as for instance a resazurin assay. In some experiments, the cells are stained with Cell Trace Violet at the start of the culture. The dye is diluted as the cells divide and gives a measurement of cell proliferation (see FIG. 1 for an example).

Assay [1] concerns unactivated T-lymphocytes. In words: Cellular assay, unactivated primary T-lymphocytes. In kind it is cell-based, human. How it is done:
as §1
The T-lymphocytes are treated with an MTH1 inhibitor, positive control or vehicle for 24-96 hrs. Cell viability can be measured by using standard assays, such as for instance a resazurin assay. In some experiments, the cells are stained with Cell Trace Violet at the start of the culture. The dye is diluted as the cells divide and gives a measurement of cell proliferation (see FIG. 1 for an example).

The next assay deals with MTH1 (Homo sapiens, UniProt P36639). The assay is described as follows: MTH1 enzymatic assay (malachite green, coupled to pyrophosphatase). In kind it is biochemical. The note with it: dGTP 100 μM, MTH1 6 nM; 96- or 384-well format; read-out: IC50.

For the molecule `Cc1c(Cl)cccc1-c1cc(NCCc2ccc(S(N)(=O)=O)cc2)nc(N)n1` [Example 297, 4-(2-{[2-amino-6-(3-chloro-2-methylphenyl)pyrimidin-4-yl]amino}ethyl)benzene-1-sulfonamide], the “effect on activated T-lymphocytes (FIG. 1)” value in the assay on activated T-lymphocytes was “selectively kills”. Besides, in assay [1], the “effect on unactivated T-lymphocytes (FIG. 1)” value was “unaffected”. In addition, on MTH1, the IC50 is below 200 nM.

(Values after patent US10632125B2, “MTH1 inhibitors for treatment of inflammatory and autoimmune conditions” (THOMAS HELLEDAYS STIFTELSE FÖR MEDICINSK FORSKNING, priority 2014, dated 2020).)
